Measurements taken from PMC5797111, “Molecular and Functional Characterization of pheromone binding protein 1 from the Oriental Fruit Moth, Grapholita molesta (Busck)” (Scientific Reports, 2018).

Columns and labels:
GmolPBP1 [1] = biological target: T1, GmolPBP1 (Grapholita molesta, UniProt A0A2R4SBD6); test: Fluorescence competitive binding assay with 1-NPN as probe; conditions: for IC50 / Ki: 1-NPN and GmolPBP1 both at 2 μM; for IC50 / binding affinity to GmolPBP1 (in words): ligands 1 to 10 μM; for IC50: read-out: IC50 (ligand concentration displacing half of the initial fluorescence intensity of the GmolPBP1/1-NPN complex); for Ki: calculated from the IC50 value, read-out: Ki (dissociation constant); for binding affinity to GmolPBP1 (in words): displacement of 1-NPN
T1 sequence (A0A2R4SBD6 entry or part of it): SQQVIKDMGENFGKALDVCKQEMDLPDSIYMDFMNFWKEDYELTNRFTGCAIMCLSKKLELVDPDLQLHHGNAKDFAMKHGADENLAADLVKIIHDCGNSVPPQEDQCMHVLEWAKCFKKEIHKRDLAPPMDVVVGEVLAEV
Description: (§1) To understand the binding properties of the GmolPBP1 with four sex pheromone components of G. molesta and the Codlemone of C. pomonella. We expressed and purified the protein (Figure S1). Then, a competitive binding assay was performed with 1-NPN as the fluorescence probe. The probe was excited at 337 nm and emission spectra were recorded between 370 and 500 nm. The fluorescent intensity of the 1-NPN alone was fairly low, then a strong blue shift, and peaked at about 410 nm with the presence of GmolPBP1. The intensity of this peak was used to determine the dissociation constant of the GmolPBP1/1-NPN complex.
The displacement of 1-NPN by different sex pheromone components was measured for GmolPBP1 in the competitive binding assy. These ligands included the four sex pheromone components of G. molesta (Z)-8-dodecenyl acetate, (E)-8-dodecenyl acetate, (Z)-8-dodecenyl alcohol and 1-dodecanol as well as the C. pomonella Codlemone. […] The dissociation constants for these three compounds are 1.73 ± 0.31, 2.25 ± 0.63 and 1.88 ± 0.25 μM, respectively.
Emission fluorescence spectra were performed on an F-4600 fluorescence Spectrophotometer (Hitachi, Japan) in a 1 cm light path quartz cuvette with 10 nm slit width for both excitation and emission. The excitation wavelength was set at 337 nm and emission spectra were recorded between 370 and 500 nm. The fluorescent probe N-phenyl-1-naphthylamine (1-NPN) and the ligands used in the binding assay were dissolved in spectrophotometric-grade methanol to yield a 1-mM stock solution (for the sources of these chemicals, see Table S1). To determine the dissociation constant between 1-NPN and GmolPBP1, 2 μM GmolPBP1 dissolved in 20 mM Tris-HCl pH 7.4 was titrated with 1 mM 1-NPN to final concentrations of 2–16 μM. The fluorescence intensities at the maximum fluorescence emission between 370 and 500 nm were plotted against the concentrations of added 1-NPN. The curve was linearized using Scatchard plots. The concentrations of bound 1-NPN were evaluated from the values of fluorescence intensity assuming that the protein was 100% active with a stoichiometry of 1:1 (protein: ligand) at saturation. The affinities of the selected ligands were measured by competitive binding assays by adding the ligands from 1 to 10 μM into the 1-NPN/GmolPBP1 solution (both at 2 μM). The emission spectra were recorded between 370 and 500 nm and the maximum fluorescence intensities were plotted against the ligand concentrations after normalization relative to the intensity at zero ligand. For these competitor ligands, the dissociation constants were computed from the corresponding IC50 values using the quation: Ki = [IC50]/(1 + [1-NPN]/K1-NPN), where [1-NPN] is the free concentration of 1-NPN and K1-NPN is the dissociation constant of the protein complex/1-NPN. All values reported were collected in three independent measurements.

GmolPBP2 = biological target: GmolPBP2; parameters: method as in doi:10.1016/S2095-3119(13)60686-3; conditions: cited from earlier work
GmolPBP1 [2] = biological target: T1, GmolPBP1; test: 1-NPN fluorescence binding (titration, Scatchard plot); conditions: 2 μM GmolPBP1 in 20 mM Tris-HCl pH 7.4, 1-NPN 2–16 μM; read-out: dissociation constant of the GmolPBP1/1-NPN complex
Description: as §1
Emission fluorescence spectra were performed on an F-4600 fluorescence Spectrophotometer (Hitachi, Japan) in a 1 cm light path quartz cuvette with 10 nm slit width for both excitation and emission. The excitation wavelength was set at 337 nm and emission spectra were recorded between 370 and 500 nm. […] The fluorescence intensities at the maximum fluorescence emission between 370 and 500 nm were plotted against the concentrations of added 1-NPN. […] The concentrations of bound 1-NPN were evaluated from the values of fluorescence intensity assuming that the protein was 100% active with a stoichiometry of 1:1 (protein: ligand) at saturation. […]

male G. molesta = system: male G. molesta; parameters: method as in earlier work; conditions: added to blend of (Z)-8-dodecenyl acetate (85.5%), (E)-8-dodecenyl acetate (5.5%) and (Z)-8-dodecenyl alcohol (9%); cited from earlier work
CpomPBP1 = system: CpomPBP1; parameters: method as in PMID 27491022, PMID 27709920; conditions: cited from earlier work
CpomPBP2 = system: CpomPBP2; parameters: method as in PMID 27491022, PMID 27709920; conditions: cited from earlier work

CCC/C=C\CCCCCCCO [(Z)-8-dodecenyl alcohol]
IC50 (GmolPBP1 [1]): 2.46 ± 0.43 µM
Ki (GmolPBP1 [1]): 1.73 ± 0.31 µM
binding affinity to GmolPBP1 (in words) (GmolPBP1 [1]): strong affinity

CCC/C=C/CCCCCCCOC(C)=O [(E)-8-dodecenyl acetate]
Ki (GmolPBP2): 1.1 ± 0.05 µM
binding affinity to GmolPBP1 (in words) (GmolPBP1 [1]): could not displace half of the total 1-NPN

c1ccc(Nc2cccc3ccccc23)cc1 [1-NPN, N-phenyl-1-naphthylamine]
Kd (GmolPBP1 [2]): 2.41 ± 0.25 µM

CCCCCCCCCCCCO [1-dodecanol]
IC50 (GmolPBP1 [1]): 3.2 ± 0.89 µM
Ki (GmolPBP1 [1]): 2.25 ± 0.63 µM
binding affinity to GmolPBP1 (in words) (GmolPBP1 [1]): strong affinity

C/C=C/C=C/CCCCCCCO [Codlemone, E, E-8, 10-Dodecadienol]
increase of trap catches of male G. molesta over the G. molesta blend alone (male G. molesta): two- to three-fold
affinity to CpomPBP1 (in words) (CpomPBP1): strong affinity
affinity to CpomPBP2 (in words) (CpomPBP2): poor affinity
IC50 (GmolPBP1 [1]): 2.66 ± 0.35 µM
Ki (GmolPBP1 [1]): 1.88 ± 0.25 µM
binding affinity to GmolPBP1 (in words) (GmolPBP1 [1]): strong affinity

CCC/C=C\CCCCCCCOC(C)=O [(Z)-8-dodecenyl acetate]
Ki (GmolPBP2): 1.09 ± 0.04 µM
binding affinity to GmolPBP1 (in words) (GmolPBP1 [1]): could not displace half of the total 1-NPN
